Laboratory results: patent publication US20070049564A1 (Wyeth, priority 2005, published 2007)
≈ marks a conversion by molar mass, not a printed value. Read-outs that look alike come from different tables or passages of the source.

Key:
Assay in all cases: MIC, broth microdilution
[1] = system: E. coli GC 2231; details: Escherichia coli
[2] = system: E. coli GC 2235; details: Escherichia coli
[3] = system: E. coli GC 2232; details: Escherichia coli
[4] = system: E. coli GC 2270; details: Escherichia coli
[5] = system: E. coli GC 2271; details: Escherichia coli
[6] = system: E. coli GC 4559; details: Escherichia coli
[7] = system: E. coli GC 4560; details: Escherichia coli
[8] = system: E. coli GC 3226; details: Escherichia coli
[9] = system: E. coli GC 2203; details: Escherichia coli
[10] = system: S. typhimurium GC 2172; details: Salmonella enterica, TYPHIMURIUM
[11] = system: P. aeruginosa GC 2214; details: Pseudomonas aeruginosa
[12] = system: S. aureus GC 6467; details: Staphylococcus aureus
[13] = system: S. aureus GC 2216; details: Staphylococcus aureus
[14] = system: S. aureus GC 6335; details: Staphylococcus aureus
[15] = system: E. faecalis GC 2267; details: Enterococcus faecalis
[16] = system: E. faecalis GC 2242; details: Enterococcus faecalis
[17] = system: E. faecium GC 4556; details: Enterococcus faecium
[18] = system: S. pneumoniae* GC 4465; details: Streptococcus pneumoniae
[19] = system: S. agalactiae GC 4564; details: Streptococcus agalactiae
[20] = read-out: MINIMAL INHIBITORY CONCENTRATION MIC, Human Serum
[21] = read-out: MINIMAL INHIBITORY CONCENTRATION MIC, Mouse Serum
[22] = read-out: MINIMAL INHIBITORY CONCENTRATION MIC, Water

MIC ([1]; GC2231, read-out: MINIMAL INHIBITORY CONCENTRATION MIC, Human Serum): > 64 µg/mL
MIC ([1]; GC2231, read-out: MINIMAL INHIBITORY CONCENTRATION MIC, Mouse Serum): > 64 µg/mL
MIC ([1]; GC2231, read-out: MINIMAL INHIBITORY CONCENTRATION MIC, Water): > 64 µg/mL
MIC ([2]; GC2235, read-out: MINIMAL INHIBITORY CONCENTRATION MIC, Human Serum): > 64 µg/mL
MIC ([2]; GC2235, read-out: MINIMAL INHIBITORY CONCENTRATION MIC, Mouse Serum): > 64 µg/mL
MIC ([2]; GC2235, read-out: MINIMAL INHIBITORY CONCENTRATION MIC, Water): > 64 µg/mL
MIC ([3]; GC2232, read-out: MINIMAL INHIBITORY CONCENTRATION MIC, Human Serum): > 64 µg/mL
MIC ([3]; GC2232, read-out: MINIMAL INHIBITORY CONCENTRATION MIC, Mouse Serum): > 64 µg/mL
MIC ([3]; GC2232, read-out: MINIMAL INHIBITORY CONCENTRATION MIC, Water): > 64 µg/mL
MIC ([4]; GC2270, read-out: MINIMAL INHIBITORY CONCENTRATION MIC, Human Serum): > 64 µg/mL
MIC ([4]; GC2270, read-out: MINIMAL INHIBITORY CONCENTRATION MIC, Mouse Serum): > 64 µg/mL
MIC ([4]; GC2270, read-out: MINIMAL INHIBITORY CONCENTRATION MIC, Water): > 64 µg/mL
MIC ([5]; GC2271, read-out: MINIMAL INHIBITORY CONCENTRATION MIC, Human Serum): > 64 µg/mL
MIC ([5]; GC2271, read-out: MINIMAL INHIBITORY CONCENTRATION MIC, Mouse Serum): > 64 µg/mL
MIC ([5]; GC2271, read-out: MINIMAL INHIBITORY CONCENTRATION MIC, Water): > 64 µg/mL
MIC ([6]; GC4559, read-out: MINIMAL INHIBITORY CONCENTRATION MIC, Human Serum): > 64 µg/mL
MIC ([6]; GC4559, read-out: MINIMAL INHIBITORY CONCENTRATION MIC, Mouse Serum): > 64 µg/mL
MIC ([6]; GC4559, read-out: MINIMAL INHIBITORY CONCENTRATION MIC, Water): > 64 µg/mL
MIC ([7]; GC4560, read-out: MINIMAL INHIBITORY CONCENTRATION MIC, Human Serum): 4 µg/mL (≈ 5.83 µM)
MIC ([7]; GC4560, read-out: MINIMAL INHIBITORY CONCENTRATION MIC, Mouse Serum): 4 µg/mL (≈ 5.83 µM)
MIC ([7]; GC4560, read-out: MINIMAL INHIBITORY CONCENTRATION MIC, Water): 4 µg/mL (≈ 5.83 µM)
MIC ([8]; GC3226, read-out: MINIMAL INHIBITORY CONCENTRATION MIC, Human Serum): > 64 µg/mL
MIC ([8]; GC3226, read-out: MINIMAL INHIBITORY CONCENTRATION MIC, Mouse Serum): > 64 µg/mL
MIC ([8]; GC3226, read-out: MINIMAL INHIBITORY CONCENTRATION MIC, Water): > 64 µg/mL
MIC ([9]; GC2203, read-out: MINIMAL INHIBITORY CONCENTRATION MIC, Human Serum): > 64 µg/mL
MIC ([9]; GC2203, read-out: MINIMAL INHIBITORY CONCENTRATION MIC, Mouse Serum): > 64 µg/mL
MIC ([9]; GC2203, read-out: MINIMAL INHIBITORY CONCENTRATION MIC, Water): > 64 µg/mL
MIC [10, 20]: > 64 µg/mL
MIC [10, 21]: > 64 µg/mL
MIC [10, 22]: > 64 µg/mL
MIC ([11]; GC2214, read-out: MINIMAL INHIBITORY CONCENTRATION MIC, Human Serum): > 64 µg/mL
MIC ([11]; GC2214, read-out: MINIMAL INHIBITORY CONCENTRATION MIC, Mouse Serum): > 64 µg/mL
MIC ([11]; GC2214, read-out: MINIMAL INHIBITORY CONCENTRATION MIC, Water): > 64 µg/mL
MIC ([12]; GC6467, read-out: MINIMAL INHIBITORY CONCENTRATION MIC, Human Serum): 4 µg/mL (≈ 5.83 µM)
MIC ([12]; GC6467, read-out: MINIMAL INHIBITORY CONCENTRATION MIC, Mouse Serum): 2 µg/mL (≈ 2.92 µM)
MIC ([12]; GC6467, read-out: MINIMAL INHIBITORY CONCENTRATION MIC, Water): 4 µg/mL (≈ 5.83 µM)
MIC ([13]; GC2216, read-out: MINIMAL INHIBITORY CONCENTRATION MIC, Human Serum): 4 µg/mL (≈ 5.83 µM)
MIC ([13]; GC2216, read-out: MINIMAL INHIBITORY CONCENTRATION MIC, Mouse Serum): 2 µg/mL (≈ 2.92 µM)
MIC ([13]; GC2216, read-out: MINIMAL INHIBITORY CONCENTRATION MIC, Water): 4 µg/mL (≈ 5.83 µM)
MIC ([14]; GC6335, read-out: MINIMAL INHIBITORY CONCENTRATION MIC, Human Serum): 4 µg/mL (≈ 5.83 µM)
MIC ([14]; GC6335, read-out: MINIMAL INHIBITORY CONCENTRATION MIC, Mouse Serum): 4 µg/mL (≈ 5.83 µM)
MIC ([14]; GC6335, read-out: MINIMAL INHIBITORY CONCENTRATION MIC, Water): 4 µg/mL (≈ 5.83 µM)
MIC ([15]; GC2267, read-out: MINIMAL INHIBITORY CONCENTRATION MIC, Human Serum): 4 µg/mL (≈ 5.83 µM)
MIC ([15]; GC2267, read-out: MINIMAL INHIBITORY CONCENTRATION MIC, Mouse Serum): 2 µg/mL (≈ 2.92 µM)
MIC ([15]; GC2267, read-out: MINIMAL INHIBITORY CONCENTRATION MIC, Water): 4 µg/mL (≈ 5.83 µM)
MIC ([16]; GC2242, read-out: MINIMAL INHIBITORY CONCENTRATION MIC, Human Serum): 4 µg/mL (≈ 5.83 µM)
MIC ([16]; GC2242, read-out: MINIMAL INHIBITORY CONCENTRATION MIC, Mouse Serum): 2 µg/mL (≈ 2.92 µM)
MIC ([16]; GC2242, read-out: MINIMAL INHIBITORY CONCENTRATION MIC, Water): 4 µg/mL (≈ 5.83 µM)
MIC ([17]; GC4556, read-out: MINIMAL INHIBITORY CONCENTRATION MIC, Human Serum): 4 µg/mL (≈ 5.83 µM)
MIC ([17]; GC4556, read-out: MINIMAL INHIBITORY CONCENTRATION MIC, Mouse Serum): 2 µg/mL (≈ 2.92 µM)
MIC ([17]; GC4556, read-out: MINIMAL INHIBITORY CONCENTRATION MIC, Water): 4 µg/mL (≈ 5.83 µM)
MIC [18, 20]: 4 µg/mL (≈ 5.83 µM)
MIC [18, 21]: 2 µg/mL (≈ 2.92 µM)
MIC [18, 22]: 2 µg/mL (≈ 2.92 µM)
MIC ([19]; GC4564, read-out: MINIMAL INHIBITORY CONCENTRATION MIC, Human Serum): 16 µg/mL (≈ 23.3 µM)
MIC ([19]; GC4564, read-out: MINIMAL INHIBITORY CONCENTRATION MIC, Mouse Serum): 8 µg/mL (≈ 11.7 µM)
MIC ([19]; GC4564, read-out: MINIMAL INHIBITORY CONCENTRATION MIC, Water): 8 µg/mL (≈ 11.7 µM)
SMILES: CCCCOC(=O)N(CC(=O)Nc1cc(N(C)C)c2c(c1O)C(=O)C1=C(O)[C@]3(O)C(=O)C(C(N)=O)=C(O)[C@@H](N(C)C)[C@@H]3C[C@@H]1C2)C(C)(C)C [Example 58, butyl 2-{[(5aR,6aS,7S,10aS)-9-(aminocarbonyl)-4,7-bis(dimethylamino)-1,8,10a,11-tetrahydroxy-10,12-dioxo-5,5a,6,6a,7,10,10a,12-octahydrotetracen-2-yl]amino}-2-oxoethyl(tert-butyl)carbamate]
